Data: PMC5144071, “Functional characterization of aconitase X as a cis-3-hydroxy-L-proline dehydratase” (Scientific Reports, 2016)

Legend:
[1] = target: T1, PaLhpI (aconitase X, AcnX Type I; cis-3-hydroxy-L-proline dehydratase) (Pseudomonas aeruginosa, UniProt Q9I485); test: substrate turnover by purified enzyme (HPLC), coupled with reductase; format: biochemical; design: gene lhpI; N-terminal (His)6-tagged recombinant protein
[2] = target: T1, PaLhpI (aconitase X, AcnX Type I; cis-3-hydroxy-L-proline dehydratase); test: substrate turnover by purified enzyme (HPLC/amino acid analyzer, 1H NMR, coupled assay); format: biochemical; design: gene lhpI; N-terminal (His)6-tagged recombinant protein
[3] = target: T2, TrLhpI (AcnX Type I) (Trichoderma reesei, UniProt G0REW7); test: substrate turnover by purified enzyme (amino acid analyzer, Lineweaver-Burk kinetics); format: biochemical
T2 construct: gene lhpI; N-terminal (His)6-tagged recombinant protein
T2 sequence (G0REW7 1-596): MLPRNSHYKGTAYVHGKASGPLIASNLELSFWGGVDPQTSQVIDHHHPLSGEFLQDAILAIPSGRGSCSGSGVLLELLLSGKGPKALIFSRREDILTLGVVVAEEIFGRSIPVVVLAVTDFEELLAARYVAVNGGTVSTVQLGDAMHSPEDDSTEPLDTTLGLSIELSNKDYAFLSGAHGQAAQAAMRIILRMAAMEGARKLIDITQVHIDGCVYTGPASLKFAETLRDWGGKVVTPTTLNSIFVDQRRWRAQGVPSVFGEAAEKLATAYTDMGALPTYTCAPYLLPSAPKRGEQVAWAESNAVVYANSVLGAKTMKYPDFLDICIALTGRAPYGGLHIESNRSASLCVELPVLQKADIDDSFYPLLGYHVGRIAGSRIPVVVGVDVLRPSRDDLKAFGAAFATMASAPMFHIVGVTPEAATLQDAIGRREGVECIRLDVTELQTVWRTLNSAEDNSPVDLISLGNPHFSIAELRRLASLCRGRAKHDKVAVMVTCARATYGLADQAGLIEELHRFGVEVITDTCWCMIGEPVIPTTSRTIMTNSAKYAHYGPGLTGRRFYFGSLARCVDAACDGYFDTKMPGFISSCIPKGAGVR

[4] = target: T3, AtLhpI (AcnX Type I) (Agrobacterium fabrum, UniProt A9CH00); test: substrate turnover by purified enzyme, Lineweaver-Burk kinetics; format: biochemical
T3 construct: gene lhpI; N-terminal (His)6-tagged recombinant protein
T3 sequence (A9CH00 1-569): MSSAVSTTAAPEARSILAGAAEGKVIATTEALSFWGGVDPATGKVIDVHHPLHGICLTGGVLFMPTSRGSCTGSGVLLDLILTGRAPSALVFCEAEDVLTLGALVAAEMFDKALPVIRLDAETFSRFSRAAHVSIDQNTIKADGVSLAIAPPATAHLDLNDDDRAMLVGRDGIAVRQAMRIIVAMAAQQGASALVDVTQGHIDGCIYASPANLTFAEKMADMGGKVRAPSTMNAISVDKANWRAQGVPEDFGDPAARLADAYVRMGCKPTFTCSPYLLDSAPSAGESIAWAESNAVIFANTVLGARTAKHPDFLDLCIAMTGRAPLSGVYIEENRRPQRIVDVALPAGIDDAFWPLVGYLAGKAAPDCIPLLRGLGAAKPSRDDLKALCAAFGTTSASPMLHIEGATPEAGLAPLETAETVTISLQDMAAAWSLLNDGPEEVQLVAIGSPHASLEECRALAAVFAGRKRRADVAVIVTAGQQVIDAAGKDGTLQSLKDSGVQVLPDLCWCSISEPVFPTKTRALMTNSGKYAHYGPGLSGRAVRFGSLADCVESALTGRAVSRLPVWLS

[5] = target: T1, PaLhpI (aconitase X, AcnX Type I; cis-3-hydroxy-L-proline dehydratase); design: gene lhpI
[6] = target: T4, PaLhpL (Pseudomonas aeruginosa, UniProt Q9I489); test: bifunctional dehydratase and 2-epimerase activity (details in supplement, Fig. S6); format: biochemical
T4 construct: gene lhpL
T4 sequence (Q9I489 1-344): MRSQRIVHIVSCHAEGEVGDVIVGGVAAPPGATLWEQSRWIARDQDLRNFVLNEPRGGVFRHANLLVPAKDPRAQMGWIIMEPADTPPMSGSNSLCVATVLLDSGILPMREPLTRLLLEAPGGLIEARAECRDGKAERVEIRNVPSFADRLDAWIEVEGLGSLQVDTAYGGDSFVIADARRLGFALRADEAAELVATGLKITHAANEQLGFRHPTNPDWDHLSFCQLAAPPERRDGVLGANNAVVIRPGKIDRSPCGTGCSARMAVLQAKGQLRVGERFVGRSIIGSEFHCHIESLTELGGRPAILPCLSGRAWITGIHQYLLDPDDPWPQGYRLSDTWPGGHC

T1 sequence (Q9I485 whole entry): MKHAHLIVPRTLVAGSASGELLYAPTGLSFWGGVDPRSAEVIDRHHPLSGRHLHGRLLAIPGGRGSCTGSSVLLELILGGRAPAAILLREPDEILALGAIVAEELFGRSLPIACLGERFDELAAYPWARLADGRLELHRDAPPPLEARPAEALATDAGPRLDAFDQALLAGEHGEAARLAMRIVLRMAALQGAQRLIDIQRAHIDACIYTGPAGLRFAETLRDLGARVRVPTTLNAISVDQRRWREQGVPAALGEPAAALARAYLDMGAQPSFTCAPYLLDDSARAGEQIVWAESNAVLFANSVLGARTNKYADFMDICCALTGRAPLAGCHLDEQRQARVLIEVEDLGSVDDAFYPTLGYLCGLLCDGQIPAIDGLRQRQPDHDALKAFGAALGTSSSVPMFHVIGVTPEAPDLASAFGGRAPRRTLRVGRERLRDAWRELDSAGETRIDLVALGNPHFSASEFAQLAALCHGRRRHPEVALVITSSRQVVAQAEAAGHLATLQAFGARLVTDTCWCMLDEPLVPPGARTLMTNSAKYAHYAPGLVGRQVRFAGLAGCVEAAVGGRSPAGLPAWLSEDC

With `O=C(O)[C@H]1NC[C@@H](O)[C@H]1O` [2,3-cis-3,4-cis-3,4-dihydroxy-L-proline] as the molecule, how does the “substrate turnover by purified enzyme (HPLC), coupled with reductase” value [1] read?
The value was 0.130 µmol/min/mg.

Which results are given for `O=C(O)[C@H]1NCC[C@H]1O` [cis-3-hydroxy-L-proline]?
substrate turnover by purified enzyme (HPLC/amino acid analyzer, 1H NMR, coupled) [2]: 39.5 µmol/min/mg; substrate turnover by purified enzyme (amino acid analyzer, Lineweaver-Burk kine) [3]: 3.75 µmol/min/mg; substrate turnover by purified enzyme, Lineweaver-Burk kinetics [4]: among eight proline derivatives (Fig. S1), only cis-3-hydroxy-L-proline was consumed in a time-dependent manner by both proteins

`O=C(O)c1ccc[nH]1` [pyrrole-2-carboxylate] was tested. Which IC50 [5] did it give?
Its IC50 is ~ 440-fold that of Cd^2+ (2.05 × 10^−3 mM).

Which “bifunctional dehydratase and 2-epimerase activity (details in supplement, Fig. S)” value [6] does the source give for `O=C(O)[C@H]1NCC[C@@H]1O` [trans-3-hydroxy-L-proline] here?
The value was “PaLhpL gene (PA1255; Fig. 1d) in the L-hydroxyproline gene cluster encodes a bifunctional dehydratase and 2-epimerase toward trans-3-hydroxy-L-proline”.
